This is an account of results in patent US20240052012A1, “PLATELET ALPHA-GRANULES FOR DELIVERY OF MULTIPLE PROTEINS” (CSTS Health Care Inc., priority 2021, published 2024).

Ends that are not written are not given here.

Experiment [1] deals with platelets (platelet rich plasma). The experiment in a line: FACS analysis of growth factor uptake by platelets. It counts as cell-based. The note with it: pretreatment of platelet rich plasma; FGF, PF4, VEGF, TPO; all but thrombopoietin; FIG. 15B. The source says:
(Inh=inhibitor added, PF4 receptor, a splice variant of the chemokine receptor CXCR3, known as CXCR3B).

The test system of a further experiment is platelet α-granule. The experiment in a line: Confocal microscopy, loading of Alexa647-PAL1 conjugated Lucitanib. It counts as cell-based. To be noted: one hour at 37° C.; FIG. 26A. The procedure:
Platelets were co-incubated with Alexa647-labled Lucitanib or with Alexa647-PAL1 conjugated Lucitanib for one hour at 37° C. The platelets were then spun for 10-minutes at 800 g, fixed in 2% paraformaldehyde, and settled onto glass coverslips. After permeabilization, immunofluorescence staining was performed against PF4 in platelets and further stained with Alexa568-secondary antibody. The images were collected through a Nikon-Al laser-scanning microscope equipped with a 60× oil objective. FIG. 26A includes representative images in which immunofluorescence for PF4 was shown in red and Alexa647 was shown in blue. […] FIG. 26B is a graph showing the averaged intensities of Alexa647 channel for >800 ROIs in each group were analyzed using ImageJ and the error bar is the standard deviation of the mean.

In a further experiment the test system is isolated platelets. In words: Platelet loading of Alexa647-labeled peptides, decrease in fluorescence in supernatant. The note with it: for fluorescence of supernatant, complete versus loaded measurements (platelet loading): Alexa647-labeled peptides co-incubated with isolated platelets at 37° C. for one hour, FIG. 1A; for loading of attached cargo into platelets, loaded condition normalized to its complete condition: FIG. 1B. It counts as cell-based. The procedure: Alexa647-labeled peptides or Alexa647 alone were co-incubated with isolated platelets at 37° C. for one hour to allow for platelet loading. The respective platelet-loading ability was indicated by a decrease in fluorescence in supernatant following the incubation. For controls, identical experiments were performed without the incubation period (noted as “complete” in the figure). Platelets following co-incubation were then centrifuged at 800 g for 10-minutes to separate platelets from supernatant (noted as “loaded” in the figure).
FIG. 1B represents the data in FIG. 1A normalized for each peptide experiment, i.e., normalization of a loaded condition to its complete condition.

The subject of experiment [2] is alpha granules of platelets. The experiment in a line: Confocal microscopy, colocalization of Alexa647-labeled peptides with PF4. Format: cell-based. The note with it: for loading into alpha granules of platelets (Alexa647 intensities per ROI): ROIs selected on PF4 intensity, FIG. 2B. On the procedure:
To confirm that the Alexa647-labeled GAG-binding peptides were loaded into alpha granules of platelets, confocal microscopy was used. The platelets that were centrifuged in the experiments of FIG. 1A and FIG. 1B, were fixed in 2% paraformaldehyde and settled onto glass coverslips. After permeabilization, immunofluorescence staining was performed against PF4, which is a marker for alpha granules of platelets. Platelets were stained with Alexa568-secondary antibody. Images were collected through a Nikon-A1 laser-scanning microscope equipped with a 60× oil objective lens.
FIG. 2A are representative images with PF4 staining shown in red (left column) and the Alexa647 signal (from the free Alexa647, Alexa647-labeled GAG-binding peptide, or Alexa647-labeled CFL; middle column) shown in purple. Images were only adjusted for brightness and contrast for display. n>5 images were acquired for each experiment and regions of interest (ROIs) were selected based on PF4 intensity.
The Alexa647 intensities for each ROI were measured using ImageJ and plotted in box and whisker graph using Prism 8.

Experiment [3] has as its system alpha-granule subsets of platelets. The experiment in a line: Confocal microscopy, subcellular localization of Alexa647-labelled PAL1 and PAL2 against VEGF and PF4. Format: cell-based. The note with it: Alexa647-labelled peptides, FIG. 24; for loading into alpha-granule subsets: VEGF and PF4 markers; for preferred colocalization with alpha-granule subset marker: VEGF/PAL and PF4/PAL merged. The procedure:
FIG. 24 are immunofluorescent images showing that PAL1 and PAL2 have different subcellular localizations, i.e., have a preference for distinct alpha-granules. Using VEGF as the marker of one alpha-granule set (green) and PF4 as the marker of the second alpha-granule set (red), the subcellular localization of Alexa647-labelled PAL1 and PAL2 (blue) were recorded on Nikon-Al confocal microscope.
The images FIG. 24 were acquired using Nikon-A1 confocal microscope equipped with a 60× oil immersed objective. PAL1 and PAL2 partially colocalize with both subsets of the alpha-granules as indicated by the cyan and purple pixels in the merged images. To quantify the difference between PAL1 and PAL2, the fractionation of loaded platelets were performed

The nature of experiment [4]: Isothermal titration calorimetry (ITC) of GAG-binding peptides. To be noted: for affinity for chondroitin sulfate A (dissociation constants by ITC): 22° C., 5 mM Tris-HCl pH 7.35, 1% DMSO, FIG. 3E, 3F. The procedure:
FIG. 3A is a schematic depicting the isothermal titration calorimetry (ITC) experiments performed in this example. Here, chondroitin sulfate A (CSA) was used to test affinities of illustrative GAG-binding peptides for glycosaminoglycan. 3 mM CSA was loaded into a syringe and CSA was titrated into the sample cell withholding a 0.25 mM solution of GAG-binding peptide or a charge-free ligand (CFL), which served as a negative control. Temperature was set at 22° C., the buffer was 5 mM Tris-HCl (pH 7.35), and 1% DMSO.
FIG. 3B to FIG. 3D show graphical representations of ITC dissociation kinetics for CSA titrated into cells withholding PAL1 (FIG. 3B), PAL2 (FIG. 3C), and CFL (FIG. 3D).
The data obtained during the experiments of FIG. 3B and FIG. 3C were used to determine dissociation constants for the CSA and GAG-binding peptide interactions; these were determined through titration curve fitting using sequential binding model.
(§1) Additionally, the binding affinities for the two illustrative GAG-binding peptides, PAL1 and PAL2, to Heparan Sulfate (HS) and Chondroitin Sulfate (CSA) was determined using affinity chromatography. […] The dissociation constants were measured using ITC, the higher it is, the looser the binding is. […] The binding was measured by the elution volume on a Hi-Trap Heparin column attached to a FPLC system. The later the peak occurs, the tighter the binding is. In FIG. 4A, the peptide amino acid sequences including the control peptide (CFL) and the two PALs (PAL1 and PAL2) are shown.

The subject of a further experiment is EOMA cells and platelets. In words: Immunofluorescence, aggregation of platelet PF4 on EOMA cells. Format: cell-based, murine. To be noted: FIG. 22. The procedure: Platelet factor 4 (PF4) has one of the highest affinities for HS occurring in nature and can occupy GAG sites and displace other HS binding growth factors. As such, PF4 acts as an inhibitor of tumor growth. FIG. 22 are immunofluorescent images showing that platelets form a provisional matrix that can exchange proteins with endothelial cells upon tumor activation. Murine hemangioendothelioma cells (EOMA) cells were grown in standard media (DMEM+10% FBS), and normal platelets were added. Under normal conditions (top row), PF4 (the main content of platelets α-granules; green and left column) is seen at the periphery (i.e., along the membrane) of the EOMA cells as the platelets aggregate along the cell membrane. Heparan sulphate (red, second from left column) is distributed throughout the membranous surface of the endothelial cell, and DAPI (blue, second from right column) is the nuclear counterstain. In absence of tumor conditioned media, thrombin or other activators of endothelial cell, there is no clumping and aggregation of the platelets. […] However, upon incubation of EOMA cells and platelets in presence of tumor conditioned media (second row), the expression of HS is increased, and a thick platelet provisional matrix is formed as shown by the aggregation of PF4 on the HS rich surface EOMA cell; this platelet provisional matrix is used by EOMA cells for growth. […]

The subject of experiment [5] is murine hemangioendothelioma cells (EOMA). The experiment in a line: Sequestration of bFGF by GAGs on EOMA cells. Format: cell-based. To be noted: monolayer culture, standard or tumor conditioned media; FIG. 20. The source says: FIG. 20 is a graph showing sequestration of growth factors by glycosaminoglycans (GAGs) on the surface of murine hemangioendothelioma cells (EOMA). Here, the cells growing in monolayer tissue culture conditions either under standard media conditions or in surrogate tumor environment using tumor conditioned media, sequester bFGF onto the GAGS on platelets and endothelial cells, and thus remove it from the supernatant. […] Values represent means and SE of 5 wells.

Experiment [6] can be described thus: Affinity chromatography of peptides, Hi-Trap Heparin column on FPLC. Format: binding. The note with it: PAL1 versus PAL2; FIG. 4C. The procedure: as §1

For `Cc1cc(N)c2cc(NC(=O)Nc3ccc4nc(C)cc(N)c4c3)ccc2n1` [surfen], the “growth factor uptake by platelets” value in [1] is reported as “significantly inhibits growth factor uptake by platelets”.

With “Alexa647-labelled PAL1 conjugated-Lucitanib: Lucitanib conjugated with Alexa647-labelled PAL1 (SEQ ID NO: 1) (ERRIWFPYRRF; also: Alexa647 label, conjugated to Lucitanib, sites not given here)”, the “colocalization with PF4 / loading into α-granules” value in the experiment on platelet α-granule is reported as “colocalization”.

As to EGGIWFPYGGF [CFL, reference compound], in the experiment on isolated platelets, the “fluorescence of supernatant, complete versus loaded measurements (platelet loading)” value is reported as “did not change” and the “loading of attached cargo into platelets, loaded condition normalized to its complete condition” value was “unable to direct loading of the cargo into platelets”. The “loading into alpha granules of platelets (Alexa647 intensities per ROI)” value in experiment [2] is on record as “do not load into platelets”. For the same molecule, the “colocalization of alpha granule marker PF4 and Alexa647 signal” value in experiment [2] (merged images, FIG. 2A) is recorded as “Co-localization was not observed”.

ERRIWFPYRRF [PAL1]: in experiment [3], the “loading into alpha-granule subsets” value is “loaded to both the subsets of alpha-granules” and the “preferred colocalization with alpha-granule subset marker” value is reported as “colocalized more to the VEGF subset”. In the experiment with isolated platelets, the “fluorescence of supernatant, complete versus loaded measurements (platelet loading)” value is “decrease in absorbance” and the “loading of attached cargo into platelets, loaded condition normalized to its complete condition” value is listed as “facilitates loading of an attached cargo into platelets”. Besides, in experiment [2], the “loading into alpha granules of platelets (Alexa647 intensities per ROI)” value is listed as “facilitates loading of an attached cargo into alpha granules of platelets”. Further, the “affinity for chondroitin sulfate A (dissociation constants by ITC)” value in experiment [4] is on record as “high affinity”. Also, the “relative binding to CSA (dissociation constants by ITC)” value in [4] (PAL1 versus PAL2, FIG. 4B) is on record as “bind CSA tighter than PAL2”.

As for Heparin, the “aggregation of platelet PF4 on the HS rich surface of EOMA cells” value in the experiment on EOMA cells and platelets is reported as “inhibited”. Also, the “sequestration of bFGF from the supernatant onto GAGs” value in [5] was “further enhance the phenomenon”.

As to RFRWPYRIREF [PAL2], in experiment [6], the “relative binding to HS (elution volume on Hi-Trap Heparin column)” value was “binds HS tighter than PAL1”. In experiment [3], the “loading into alpha-granule subsets” value is “loaded to both the subsets of alpha-granules” and the “preferred colocalization with alpha-granule subset marker” value is given as “colocalized more to the PF4 channel”. In addition, in the experiment with isolated platelets, the “fluorescence of supernatant, complete versus loaded measurements (platelet loading)” value is reported as “decrease in absorbance” and the “loading of attached cargo into platelets, loaded condition normalized to its complete condition” value is given as “facilitates loading of an attached cargo into platelets”. Moreover, in [2], the “loading into alpha granules of platelets (Alexa647 intensities per ROI)” value is “facilitates loading of an attached cargo into alpha granules of platelets”. Besides, the “affinity for chondroitin sulfate A (dissociation constants by ITC)” value in experiment [4] is reported as “high affinity”.

Turning to thrombin, the “aggregation of platelet PF4 on the HS rich surface of EOMA cells” value in the experiment on EOMA cells and platelets was “reproduced”. In addition, in experiment [5], the “sequestration of bFGF from the supernatant onto GAGs” value is “released from the GAGs into the supernatant”.
